Measurements taken from ChEMBL document CHEMBL1201862, “PubChem BioAssay data set” (2004).
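Results reflect a 48-hour exposure of cells in 96-well plates to compound at five concentrations. Here, GI50 denotes the concentration required for 50% inhibition of growth.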 Activity calls are given as the source filed them. No stated cut-off is given here; in the data, active = GI50 up to about 1.1 µM and inactive = higher.

How the values were obtained:
Test in all cases: NCI-60 cell line screen, 48 h
DMS-273 = test system: DMS-273
CAKI-1 = test system: CAKI-1
MDA-MB-435 = test system: MDA-MB-435
SK-OV-3 = test system: SK-OV-3
RPMI-8226 = test system: RPMI-8226
MDA-MB-231 = test system: MDA-MB-231
SK-MEL-5 = test system: SK-MEL-5
SNB-19 = test system: SNB-19
SF-539 = test system: SF-539
UACC-62 = test system: UACC-62
CCRF-CEM = test system: CCRF-CEM
HCT-15 = test system: HCT-15
DMS-114 = test system: DMS-114
SF-268 = test system: SF-268
HT-29 = test system: HT-29
NCI-H522 = test system: NCI-H522
UO-31 = test system: UO-31
HOP-92 = test system: HOP-92
HCT-116 = test system: HCT-116
RXF 393 = test system: RXF 393

Q: How did the GI50 (DMS-273) turn out when CCc1ccccc1N1CCN(C(=O)c2cc(OC)c(OC)c(OC)c2)CC1 was run?
A: 0.0277 µM (active)

Q: What about the GI50 (CAKI-1) of the same compound?
A: < 0.0205 µM (active)

Q: And the GI50 (MDA-MB-435)?
A: < 0.01 µM (active)

Q: And the GI50 (SK-OV-3)?
A: 0.0375 µM (active)

Q: And the GI50 (RPMI-8226)?
A: 0.149 µM (active)

Q: What about the GI50 (MDA-MB-231) of the same compound?
A: 0.057 µM (active)

Q: And the GI50 (SK-MEL-5)?
A: 0.0154 µM (active)

Q: And the GI50 (SNB-19)?
A: 0.067 µM (active)

Q: And the GI50 (SF-539)?
A: 0.0212 µM (active)

Q: And the GI50 (UACC-62)?
A: 0.0156 µM (active)

Q: And the GI50 (CCRF-CEM)?
A: 0.0524 µM (active)

Q: And the GI50 (HCT-15)?
A: 0.0259 µM

Q: And the GI50 (DMS-114)?
A: 0.0561 µM (active)

Q: What about the GI50 (SF-268) of the same compound?
A: 0.114 µM (active)

Q: What about the GI50 (HT-29) of the same compound?
A: 0.0225 µM (active)

Q: And the GI50 (NCI-H522)?
A: 0.0134 µM (active)

Q: What about the GI50 (UO-31) of the same compound?
A: 0.0685 µM (active)

Q: And the GI50 (HOP-92)?
A: 0.0977 µM (active)

Q: What about the GI50 (HCT-116) of the same compound?
A: 0.042 µM (active)

Q: What about the GI50 (RXF 393) of the same compound?
A: 0.0105 µM (active)
